Experiments:
glucagon receptor [1] = target: glucagon receptor (Mus musculus, UniProt Q61606); assay: Experiment for glucagon binding inhibition, mouse hepatic membrane (125I-glucagon); details: male ddY mouse hepatic membrane, 125I-glucagon 50 pM, 25° C. for 30 minutes; read-out: Glucagon binding inhibitory activity IC50 (nM) Mouse
Description: (§1) The preparation of membrane from mouse and rat livers was carried out according to the method described in Bioorg. Med. Chem. Lett. 1992, 12, 915-918 in this experiment and ^125I-glucagon binding activity was measured with these membranes as glucagon receptor's samples. Livers were removed from male SD rats (about 250 g body weight per rat) and male ddY mice (about 30 g body weight per mouse). […] The homogenate was centrifuged for 15 minutes at 30,000×g. […] The precipitaion thus obtained was used as a hepatic membrane sample. […] The mixture was incubated at 25° C. for 30 minutes. […] The filter was washed 3 times with 50 mM Tris-HCl buffer (pH 7.2), and the radioactivity of the filter was measured by a γ counter (ARC-360, Aloka Co., Ltd.). […] Each experiment was carried out in duplicate. […] The concentration at 50% inhibition of binding (IC50) was calculated using a pseudo Hill plot.

glucagon receptor [2] = target: glucagon receptor (Rattus norvegicus, UniProt P30082); assay: Experiment for glucagon binding inhibition, rat hepatic membrane (125I-glucagon); details: male SD rat hepatic membrane, 125I-glucagon 50 pM, 25° C. for 30 minutes; read-out: Glucagon binding inhibitory activity IC50 (nM) Rat
Chain of glucagon receptor (Rattus norvegicus, UniProt P30082) (P30082 27-485): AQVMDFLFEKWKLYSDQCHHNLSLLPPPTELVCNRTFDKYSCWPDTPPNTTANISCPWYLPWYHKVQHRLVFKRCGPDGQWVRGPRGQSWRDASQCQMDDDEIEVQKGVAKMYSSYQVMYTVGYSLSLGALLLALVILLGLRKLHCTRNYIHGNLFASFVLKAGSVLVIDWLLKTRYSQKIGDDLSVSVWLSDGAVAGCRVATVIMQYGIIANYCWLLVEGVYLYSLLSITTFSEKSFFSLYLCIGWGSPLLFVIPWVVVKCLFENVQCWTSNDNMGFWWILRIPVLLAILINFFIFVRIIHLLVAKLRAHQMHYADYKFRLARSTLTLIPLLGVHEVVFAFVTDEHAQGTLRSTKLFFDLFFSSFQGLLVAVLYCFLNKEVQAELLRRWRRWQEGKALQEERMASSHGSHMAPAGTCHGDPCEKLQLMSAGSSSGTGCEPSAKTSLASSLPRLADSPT
Description: as §1

Chain of glucagon receptor (Mus musculus, UniProt Q61606) (Q61606 27-485): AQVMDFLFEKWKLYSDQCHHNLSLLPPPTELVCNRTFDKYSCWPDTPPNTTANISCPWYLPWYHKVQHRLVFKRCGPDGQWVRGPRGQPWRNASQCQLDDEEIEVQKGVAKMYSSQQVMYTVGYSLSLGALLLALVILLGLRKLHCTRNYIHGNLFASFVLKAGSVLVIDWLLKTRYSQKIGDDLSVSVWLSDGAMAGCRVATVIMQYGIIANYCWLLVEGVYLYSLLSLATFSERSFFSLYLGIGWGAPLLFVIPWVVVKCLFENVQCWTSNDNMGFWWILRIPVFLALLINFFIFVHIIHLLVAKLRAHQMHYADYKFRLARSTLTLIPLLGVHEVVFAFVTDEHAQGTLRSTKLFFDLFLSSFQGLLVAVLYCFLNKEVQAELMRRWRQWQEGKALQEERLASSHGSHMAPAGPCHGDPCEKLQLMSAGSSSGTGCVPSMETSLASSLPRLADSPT

melting point [°C] | IC50 (glucagon receptor [1]) [nM] | IC50 (glucagon receptor [2]) [nM] | SMILES
285 to 288 |  |  | O=C(NNC(=O)c1occ(-c2ccccc2)c1-c1ccccc1)c1ccc(O)cc1O
102 to 104 | 56 | 39 | COc1ccc(Cc2cccc(-c3ccoc3C(=O)NNC(=O)c3ccc(O)c([N+](=O)[O-])c3)c2)cc1 [Example 234]
178 to 180 | 26 | 12 | Cc1cc(C)cc(COc2cccc(-c3ccoc3C(=O)NNC(=O)c3ccc(O)c([N+](=O)[O-])c3)c2)c1 [Example 223]
113 to 115 | 20 | 75 | CC=CCOc1cccc(-c2ccoc2C(=O)NNC(=O)c2ccc(O)c([N+](=O)[O-])c2)c1 [Example 198, 3-[3-(2-Butenyloxy)phenyl]-2-furancarboxylic acid 2-(4-hydroxy-3-nitrobenzoyl)hydrazide]
243 to 245 | 120 | 220 | N#Cc1cc(C(=O)NNC(=O)c2occ(-c3ccc(F)cc3)c2-c2ccc(F)cc2)ccc1O [Example 45, 3,4-Bis(4-fluorophenyl)-2-furancarboxylic acid 2-(3-cyano-4-hydroxybenzoyl)hydrazide]
237 |  |  | O=C(NNC(=O)c1occc1-c1ccncc1)c1ccc(O)c([N+](=O)[O-])c1
189 to 191 | 45 | 44 | CCc1ccc(-c2ccoc2C(=O)NNC(=O)c2ccc(O)c([N+](=O)[O-])c2)cc1 [Example 156, 3-(4-Ethylphenyl)-2-furancarboxylic acid 2-(4-hydroxy-3-nitrobenzoyl)hydrazide]
127 to 129 | 73 | 90 | Cc1ccc(-c2ccoc2C(=O)NNC(=O)c2ccc(O)c([N+](=O)[O-])c2)cc1C [Example 150, 3-(3,4-Dimethylphenyl)-2-furancarboxylic acid 2-(4-hydroxy-3-nitrobenzoyl)hydrazide]
240 to 242 |  |  | COc1ccc(C(=O)NNC(=O)c2occ(-c3ccccc3)c2-c2ccccc2)c(OC)c1
181 to 184 |  |  | COc1ccc(C(=O)NNC(=O)c2occ(-c3ccccc3)c2-c2ccccc2)cc1OC
141 to 144 | 23 | 20 | CCCCCCCOc1cccc(-c2ccoc2C(=O)NNC(=O)c2ccc(O)c([N+](=O)[O-])c2)c1 [Example 185, 3-(3-Heptyloxyphenyl)-2-furancarboxylic acid 2-(4-hydroxy-3-nitrobenzoyl)hydrazide]
172 to 173 | 2.8 | 3.4 | Cc1ccc(COc2cccc(-c3ccoc3C(=O)NNC(=O)c3ccc(O)c([N+](=O)[O-])c3)c2)c(C)c1 [Example 128, 3-[3-(2,4-Dimethylbenzyloxy)phenyl]-2-furancarboxylic acid 2-(4-hydroxy-3-nitrobenzoyl)hydrazide]
180 to 181 | 6.5 | 3.9 | COc1ccc(COc2cccc(-c3ccoc3C(=O)NNC(=O)c3ccc(O)c([N+](=O)[O-])c3)c2)cn1 [Example 164, 3-[3-(2-Methoxy-5-pyridylmethyloxy)phenyl]-2-furancarboxylic acid 2-(4-hydroxy-3-nitrobenzoyl)hydrazide]
162 to 164 | 39 | 49 | Cc1cccc(COc2ccc(-c3ccoc3C(=O)NNC(=O)c3ccc(O)c([N+](=O)[O-])c3)cc2)c1 [Example 214]
127 to 129 | 56 | 37 | C=C(C)COc1cccc(-c2ccoc2C(=O)NNC(=O)c2ccc(O)c([N+](=O)[O-])c2)c1 [Example 197, 3-[3-(2-Methyl-2-propenyloxy)phenyl]-2-furancarboxylic acid 2-(4-hydroxy-3-nitrobenzoyl)hydrazide]
112 to 114 | 180 | 89 | CCCc1ccc(-c2ccoc2C(=O)NNC(=O)c2ccc(O)c(C(F)(F)F)c2)cc1 [Example 242]
126 to 128 | 190 | 100 | Cc1cccc(-c2ccoc2C(=O)NNC(=O)c2ccc(O)c([N+](=O)[O-])c2)c1 [Example 145, 3-(3-Methylphenyl)-2-furancarboxylic acid 2-(4-hydroxy-3-nitrobenzoyl)hydrazide]
250 to 251 |  |  | O=C(NNC(=O)c1occc1-c1ccccc1)c1ccc(O)c(C(=O)O)c1
124 to 126 | 59 | 18 | CCCCCCOc1cccc(-c2ccoc2C(=O)NNC(=O)c2ccc(O)c([N+](=O)[O-])c2)c1 [Example 184, 3-(3-Hexyloxyphenyl)-2-furancarboxylic acid 2-(4-hydroxy-3-nitrobenzoyl)hydrazide]
131 to 132 | 7.8 | 8.6 | Cc1ccc(C)c(COc2cccc(-c3ccoc3C(=O)NNC(=O)c3ccc(O)c([N+](=O)[O-])c3)c2)c1 [Example 127, 3-[3-(2,5-Dimethylbenzyloxy)phenyl]-2-furancarboxylic acid 2-(4-hydroxy-3-nitrobenzoyl)hydrazide]
172 to 174 | 5.2 | 6.4 | COc1ccc(COc2cccc(-c3ccoc3C(=O)NNC(=O)c3ccc(O)c([N+](=O)[O-])c3)c2)cc1 [Example 176, 3-[3-(4-Methoxybenzyloxy)phenyl]-2-furancarboxylic acid 2-(4-hydroxy-3-nitrobenzoyl)hydrazide]
197 to 199 |  |  | O=C(NNC(=O)c1occ(-c2ccccc2)c1-c1ccccc1)c1ccc(O)c(Cl)c1

melting point [°C] | IC50 (glucagon receptor [1]) [nM] | IC50 (glucagon receptor [2]) [nM] | SMILES
229 to 230 |  |  | COc1c(Cl)cc(C(=O)NNC(=O)c2occ(-c3ccccc3)c2-c2ccccc2)cc1Cl
115 to 120 |  |  | O=C(NNC(=O)c1occ(-c2ccccc2)c1-c1ccccc1)c1ccncc1
242 to 244 |  |  | O=C(NNC(=O)c1occ(-c2ccccc2)c1-c1ccccc1)c1ccc(O)c(O)c1
261 to 263 |  |  | O=C(NNC(=O)c1occ(-c2ccccc2)c1-c1ccccc1)c1cc(Cl)c(O)c(Cl)c1
240 to 242 |  |  | Cc1ccc(-c2ccoc2C(=O)NNC(=O)c2ccc(O)c(Cl)c2)cc1
190 to 192 |  |  | O=C(NNC(=O)c1occ(-c2ccccc2)c1-c1ccccc1)c1ccccn1
175 to 177 |  |  | C=Cc1coc(C(=O)NNC(=O)c2ccc(O)c(C#N)c2)c1-c1ccccc1
190 to 192 |  |  | CCc1c(-c2ccccc2)coc1C(=O)NNC(=O)c1ccc(O)c(C#N)c1
220 to 225 |  |  | COc1ccc(C(=O)NNC(=O)c2occ(-c3ccccc3)c2-c2ccccc2)cc1C#N
179 to 181 |  |  | N#Cc1cc(C(=O)NNC(=O)c2occc2-c2cccc(NC(=O)OCc3ccccc3)c2)ccc1O
150 to 158 |  |  | COc1ccc(C(=O)NNC(=O)c2occ(-c3ccccc3)c2-c2ccccc2)cc1[N+](=O)[O-]
132 to 135 |  |  | O=C(NNC(=O)c1occ(-c2ccccc2)c1-c1ccccc1)c1cccs1
203 to 207 |  |  | COc1ccc(C(=O)NNC(=O)c2occ(-c3ccccc3)c2-c2ccccc2)cc1Cl
147 to 154 |  |  | CC(C)(C)OC(=O)c1cc(C(=O)NNC(=O)c2occc2-c2ccccc2)ccc1O
174 to 175 |  |  | Cc1cc(C)c(C)c(COc2cccc(-c3coc(C(=O)NNC(=O)c4ccc(O)c([N+](=O)[O-])c4)c3-c3cccc(OCc4c(C)c(C)cc(C)c4C)c3)c2)c1C
170 to 171 |  |  | CS(=O)(=O)Oc1cccc(-c2ccoc2C(=O)NNC(=O)c2ccc(O)c([N+](=O)[O-])c2)c1
221 to 222 |  |  | CC(=O)N(Cc1ccccc1)c1cccc(-c2ccoc2C(=O)NNC(=O)c2ccc(O)c(C#N)c2)c1
217 to 218 |  |  | O=C(NNC(=O)c1occ(-c2ccccc2)c1-c1ccccc1)c1ccc(O)c(-c2ccccc2)c1
186 to 188 |  |  | CCc1coc(C(=O)NNC(=O)c2ccc(O)c(C#N)c2)c1-c1ccccc1
178 to 180 |  |  | Cc1ccccc1COc1cccc(-c2ccoc2C(=O)NNC(=O)c2ccc(O)c(C#N)c2)c1
 | 390 | 160 | O=C(NNC(=O)c1occ(-c2ccccc2)c1-c1ccccc1)c1ccc(O)c(C(F)(F)F)c1 [Example 43, 3,4-diphenyl-2-furancarboxylic acid 2-(4-hydroxy-3-trifluoromethylbenzoyl)hydrazide]
 | 80 | 54 | N#Cc1cc(C(=O)NNC(=O)c2occ(-c3cccc(OCc4ccccc4)c3)c2-c2cccc(OCc3ccccc3)c2)ccc1O [Example 115, 3,4-bis(3-benzyloxyphenyl)-2-furancarboxylic acid 2-(3-cyano-4-hydroxybenzoyl)hydrazide]

SMILES | melting point [°C] | IC50 (glucagon receptor [1]) [nM] | IC50 (glucagon receptor [2]) [nM]
CCCCOc1cccc(-c2ccoc2C(=O)NNC(=O)c2ccc(O)c(C#N)c2)c1 [Example 107, 3-(3-Butoxyphenyl)-2-furancarboxylic acid 2-(3-cyano-4-hydroxybenzoyl)hydrazide] | 186 to 188 | 360 | 140
CCCCOc1cccc(-c2ccoc2C(=O)NNC(=O)c2ccc(O)c([N+](=O)[O-])c2)c1 [Example 181, 3-(3-Butoxyphenyl)-2-furancarboxylic acid 2-(4-hydroxy-3-nitrobenzoyl)hydrazide] | 135 to 138 | 62 | 30

Reference: US7514452B2, “2-furancarboxylic acid hydrazides and pharmaceutical compositions containing the same” (Dainippon Pharmaceutical Co., Ltd, priority 2002, dated 2009)
